Assay [1] has as its system SD rat cerebral ischemia reperfusion injury model (MCAO). Nature of the assay: TTC staining and cerebral infarction area in rat ischemic stroke model (MCAO). The format is in vivo. As to conditions: for Cerebral infarction area: individual rats. How it is done: Healthy male SPF grade SD rats (body weight 250-300 g) were selected. (1) The rats were anesthetized, the skin on the neck was prepared, and the body temperature was maintained at 37±0.5° C. (2) A midline neck incision was made to expose the right common carotid artery, internal carotid artery and external carotid artery. A 6-0 silk thread was used to ligate the distal end of the external carotid artery at 4 mm from the bifurcation of the common carotid artery, another 6-0 silk thread was inserted at the external carotid artery, and a slipknot was tied near the bifurcation of the common carotid artery. (3) An arterial clamp was used to clamp the common carotid artery. A small opening was cut on the external carotid artery at 3 mm from the bifurcation of the common carotid artery, and a 0.33 mm diameter nylon thread with a treated head end was inserted through the small opening, entered the internal carotid artery, and was inserted inward to the middle cerebral artery, wherein the insertion depth of the nylon thread was about 16±1 mm from the bifurcation of the common carotid artery. (4) The thread embolism was removed 90 min after ischemia, the proximal end of the external artery was ligated with a 6-0 silk thread, the neck wound was sutured with a 3-0 silk thread, the wound was disinfected with povidone iodine, the rats were placed on a heating pad, and after being awake, they were placed in a constant temperature rearing box for rearing. […] After the rats were anesthetized, the brain tissues were taken from the rats, placed in a refrigerator and frozen at -20° C. for 30 min. 1% TTC (W/V) was prepared with PBS and placed in a water bath at 37° C. until the TTC was dissolved, and the frozen brain tissue was sliced, placed in 10 ml of the TTC solution and incubated at 37° C. for 10 min. The brain slices were turned from time to time to make the tissue evenly stained. Normal brain tissue was bright red after staining, whereas the infarction region was pale white in color or light white in a black and white image. In addition, a software was used to measure and statistically analyze the infarction area. In a manner same as in Example 1, experimental animals were selected, except that the experiment was divided into seven groups (i.e., groups […], and G, among which groups C, D, and E were given different dosages of administration from Example 1, group F was given edaravone, and group G was given amifostine).

In assay [2] the test system is cisplatin-induced nephrotoxicity in SD rats. Nature of the assay: Cisplatin-induced nephrotoxicity in SD rats: blood creatinine and urea nitrogen. The conditions noted are these: for Effect on cisplatin-induced increase of blood creatinine and urea nitrogen (in words): 30 min prior to cisplatin 5 mg/kg i.p.: compound B 200 mg/kg i.p., compound A 800 mg/kg p.o., amifostine 200 mg/kg i.p., day 5; for Creatinine / Urea nitrogen: whole blood day 5, individual rats. The assay is classed as in vivo, rat. How it is done:
Healthy male SPF grade SD rats (body weight 250-300 g) were selected. Control group: PBS […] Cisplatin+compound B group: 5 mg/kg i.p.+compound B at 200 mg/kg i.p., with compound B being administered 30 min prior to cisplatin administration Cisplatin+amifostine group: 5 mg/kg i.p.+AMI at 200 mg/kg i.p., with AMI being administered 30 min prior to cisplatin administration Cisplatin+compound A group: 5 mg/kg i.p.+compound A at 800 mg/kg p.o., with compound A being administered 30 min prior to cisplatin administration (1) The SD rats used in the experiment were weighed, labeled, and evenly divided into 5 groups, with 3 SD rats in each group. (2) The compound B, compound A, and AMI groups were respectively administered at the planned concentrations. […] (3) The rats were weighed and recorded daily, and on day 5, blood was taken from the intraocular canthus of the SD rats and placed in an anticoagulant tube.

Assay [3] concerns bleomycin (BLM)-induced scleroderma mouse model. Nature of the assay: H2O2 level in skin lesion, BLM-induced scleroderma mouse model. The assay is classed as in vivo, mice. The conditions noted are these: compound A (hydrochloride) 600 mg/kg/d by gavage or compound B (trifluoroacetate) 200 mg/kg/d i.p., 28 days with BLM. The text has this:
Materials: C57BL/6 female mice, weighing 20-25 g, were purchased from Shanghai SLAC Laboratory Animal Co., Ltd. Using a random number table method, 24 mice were divided into a blank control group (1), a scleroderma model group (2), a scleroderma+compound A treatment group (3), and a scleroderma+compound B treatment group (4), with 6 mice in each group. Bleomycin (BLM) was purchased from Sigma. An H-E staining kit was purchased from Beijing Solarbio Science & Technology Co., Ltd. Compound A used in this example was in the form of a hydrochloride thereof, and compound B was in the form of a trifluoroacetate thereof.
Method: The intended injection site (area 1 cm^2) of the mice was shaved using an electric shaver. […] Conventional iodine tincture was used to disinfect the back skin of the mice, and a local diseased skin tissue was surgically cut, fixed in 4% paraformaldehyde, embedded in paraffin, sectioned, and analyzed by H-E staining. […]
Method: Part of the skin lesion tissue of the mice was taken, and the contents of hydroxyproline and hydrogen peroxide in the skin lesion region were detected according to the requirements in the kit instructions.

[4] abbreviates: Example 2 group D: compound A (trifluoroacetate) 400 mg/kg p.o. 2.5 h before reperfusion, 400 mg/kg.
Where [5] appears, read: Example 2 group E: compound A (trifluoroacetate) 800 mg/kg p.o. 2.5 h before reperfusion, 800 mg/kg.
Where [6] appears, read: compound A (trifluoroacetate) 800 mg/kg p.o. 30 min prior to cisplatin 5 mg/kg i.p.
Where [7] appears, read: Example 2 group C: compound B (trifluoroacetate) 100 mg/kg i.p. 5 min before reperfusion, 100 mg/kg.
Where [8] appears, read: compound B (trifluoroacetate) 200 mg/kg i.p. 30 min prior to cisplatin 5 mg/kg i.p.

“And” between values parts separate entries of the source, which are not always exact repeats. Identical values can stand only once. Where a SMILES comes first, the peptide text is derived from it. [ ]: non-standard residue; d: D form. NMeC = CN[C@@H](CS)C(=O)O

`CNC(=O)[C@H](CS)NC(=O)[C@H](CS)NC` [Compound A, (R)-3-mercapto-N—((R)-3-mercapto-1-(methylamino)-1-oxoprop-2-yl)-2-(methylamino)propionamide] (H-[NMeC]-Cys-NHMe): the “% Improvement of cerebral infarction area” value in assay [1] (Example 1 group E: compound A (trifluoroacetate) 1600 mg/kg p.o. 2.5 h before reperfusion, 1600 mg/kg) turned out to be 83.9%; in assay [1] (setting [4]) it was 72.97%; in assay [1] (setting [5]), 87.32%. In addition, the Cerebral infarction area is 40.19 mm^3 and 26.33 mm^3 and 9.18 mm^3 in assay [1] (Example 1 group E: compound A (trifluoroacetate) 1600 mg/kg p.o. 2.5 h before reperfusion, 24 h, 1600 mg/kg); 25.16 mm^3 and 11.23 mm^3 and 20.59 mm^3 and 15.48 mm^3 and 38.04 mm^3 and 82.75 mm^3 in assay [1] (setting [4]); 14.23 mm^3 and 0 mm^3 (2×) and 16.93 mm^3 and 12.31 mm^3 and 47.18 mm^3 in assay [1] (setting [5]). For the same compound, the “Effect on cisplatin-induced increase of blood creatinine and urea nitrogen (in words)” value in assay [2] was “significantly reduce the increased blood creatinine and urea nitrogen levels”. Further, the Creatinine in assay [2] (setting [6]) is 28.4 µmol/L and 18.1 µmol/L and 17.1 µmol/L. Besides, the Urea nitrogen in assay [2] (setting [6]) is 7.68 mmol/L and 7.16 mmol/L and 10.21 mmol/L. Further, the “Concentration of H2O2 in the skin” value in assay [3] is reported as “reduced”.
On to `CNC(=O)[C@H](CS)NC(=O)[C@H](CS)NC(=O)[C@H](CS)NC` [Compound B, (R)-3-mercapto-N—((R)-3-mercapto-1-(((R)-3-mercapto-1-(methylamino)-1-oxoprop-2-yl)amino)-1-oxoprop-2-yl)-2-(methylamino)propionamide] (H-[NMeC]-Cys-Cys-NHMe), for which the “% Improvement of cerebral infarction area” value is 62.5% in assay [1] (Example 1 group C: compound B (trifluoroacetate) 200 mg/kg i.p. 5 min before reperfusion, 200 mg/kg); 44.4% in assay [1] (Example 1 group D: compound B (trifluoroacetate) 200 mg/kg i.p. during ischemia and 200 mg/kg i.p. 5 min before reperfusion); 59.5% in assay [1] (setting [7]). Besides, the Cerebral infarction area in assay [1] (Example 1 group C: compound B (trifluoroacetate) 200 mg/kg i.p. 5 min before reperfusion, 24 h, 200 mg/kg) is 67.44 mm^3 and 67.69 mm^3 and 32.84 mm^3 and 23.4 mm^3 and 105.9 mm^3; in assay [1] (Example 1 group D: compound B (trifluoroacetate) 200 mg/kg i.p. during ischemia and 200 mg/kg i.p. 5 min before reperfusion, 24 h), 67.53 mm^3 and 105.5 mm^3; in assay [1] (setting [7]), 0 mm^3 and 32.568 mm^3 and 45.956 mm^3 and 21.529 mm^3 and 104.008 mm^3 and 85.208 mm^3. Further, in assay [2], the “Effect on cisplatin-induced increase of blood creatinine and urea nitrogen (in words)” value was “significantly reduce the increased blood creatinine and urea nitrogen levels”. Further, the Creatinine in assay [2] (setting [8]) is 18.1 µmol/L and 14.7 µmol/L and 30.4 µmol/L. The Urea nitrogen in assay [2] (setting [8]) is 7.28 mmol/L and 5.71 mmol/L and 6.77 mmol/L. The “Concentration of H2O2 in the skin” value in assay [3] is on record as “reduced”.
